Measurements published in ChEMBL document CHEMBL1201862, “PubChem BioAssay data set” (2004).
The source made the active and inactive calls.

Assays:
[1] = HEp-2 cell cytotoxicity, dose response, cytotoxicity control for RSV inhibitor project, HTS (AID 2410); assay type: functional; conditions: human respiratory syncytial virus
[2] = biological target: T1, Cytochrome P450 1A2 (Homo sapiens, UniProt P05177);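 further: PubChem cytochrome P450 panel assay, CYP1A2 panel member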
T1 sequence (P05177 whole entry): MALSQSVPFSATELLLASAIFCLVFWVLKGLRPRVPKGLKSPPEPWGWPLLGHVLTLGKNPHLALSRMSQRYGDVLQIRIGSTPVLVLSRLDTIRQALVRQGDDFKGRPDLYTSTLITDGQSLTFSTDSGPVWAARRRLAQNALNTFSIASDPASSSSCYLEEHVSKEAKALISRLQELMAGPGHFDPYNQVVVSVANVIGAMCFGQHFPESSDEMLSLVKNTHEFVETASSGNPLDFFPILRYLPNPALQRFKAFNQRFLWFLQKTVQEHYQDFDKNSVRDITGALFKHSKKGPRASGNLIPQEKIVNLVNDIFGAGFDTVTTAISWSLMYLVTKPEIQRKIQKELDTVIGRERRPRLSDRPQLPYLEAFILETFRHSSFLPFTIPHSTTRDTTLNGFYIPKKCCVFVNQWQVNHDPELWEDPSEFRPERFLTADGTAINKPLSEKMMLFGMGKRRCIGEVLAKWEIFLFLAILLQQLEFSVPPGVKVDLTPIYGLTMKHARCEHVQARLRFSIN

[3] = biological target: Cytochrome P450 2C19 (Homo sapiens, UniProt P33261); assay: Cytochrome panel assay with activity outcomes. Panel member name: p450-cyp2c19 Compounds with AC50 equal or less than 10 uM are considered active; assay type: functional; conditions: read-out: AC50
Chain of Cytochrome P450 2C19 (P33261 whole entry): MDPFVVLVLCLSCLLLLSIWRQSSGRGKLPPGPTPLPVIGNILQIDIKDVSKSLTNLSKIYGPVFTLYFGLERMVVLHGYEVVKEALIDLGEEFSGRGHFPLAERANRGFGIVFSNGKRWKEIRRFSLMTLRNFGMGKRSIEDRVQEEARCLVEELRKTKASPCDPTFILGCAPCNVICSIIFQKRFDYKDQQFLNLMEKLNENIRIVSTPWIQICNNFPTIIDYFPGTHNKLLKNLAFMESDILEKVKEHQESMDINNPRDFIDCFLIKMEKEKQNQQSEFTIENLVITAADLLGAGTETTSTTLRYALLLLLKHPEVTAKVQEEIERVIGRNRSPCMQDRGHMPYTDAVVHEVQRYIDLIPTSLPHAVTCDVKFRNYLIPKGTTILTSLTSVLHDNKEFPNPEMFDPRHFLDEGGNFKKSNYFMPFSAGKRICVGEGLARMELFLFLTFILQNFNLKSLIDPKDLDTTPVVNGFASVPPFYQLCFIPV

[4] = biological target: Cytochrome P450 2C9 (Homo sapiens, UniProt P11712)
Chain of Cytochrome P450 2C9 (P11712 whole entry): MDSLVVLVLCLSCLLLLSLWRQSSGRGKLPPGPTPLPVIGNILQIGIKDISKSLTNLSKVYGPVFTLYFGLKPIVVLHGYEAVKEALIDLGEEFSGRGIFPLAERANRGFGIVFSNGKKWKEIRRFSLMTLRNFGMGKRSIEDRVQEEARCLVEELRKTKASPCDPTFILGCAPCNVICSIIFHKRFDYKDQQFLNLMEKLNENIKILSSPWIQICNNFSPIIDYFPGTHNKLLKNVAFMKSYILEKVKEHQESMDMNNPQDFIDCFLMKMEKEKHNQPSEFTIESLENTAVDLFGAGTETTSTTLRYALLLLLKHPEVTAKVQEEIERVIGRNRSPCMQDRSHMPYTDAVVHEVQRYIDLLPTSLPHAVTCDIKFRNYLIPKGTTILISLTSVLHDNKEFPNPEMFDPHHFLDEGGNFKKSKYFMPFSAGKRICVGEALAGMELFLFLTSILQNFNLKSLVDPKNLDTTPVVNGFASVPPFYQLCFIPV

[5] = biological target: T2, Corticotropin-releasing factor receptor 2/Corticotropin-releasing factor-binding protein (Homo sapiens, UniProt P24387+Q13324); assay: activators of CRF receptor 2 with binding protein – uHTS hits, confirmation (AID 602473); assay type: functional; conditions: read-out: EC50_Mean
T2 sequence (Q13324 whole entry): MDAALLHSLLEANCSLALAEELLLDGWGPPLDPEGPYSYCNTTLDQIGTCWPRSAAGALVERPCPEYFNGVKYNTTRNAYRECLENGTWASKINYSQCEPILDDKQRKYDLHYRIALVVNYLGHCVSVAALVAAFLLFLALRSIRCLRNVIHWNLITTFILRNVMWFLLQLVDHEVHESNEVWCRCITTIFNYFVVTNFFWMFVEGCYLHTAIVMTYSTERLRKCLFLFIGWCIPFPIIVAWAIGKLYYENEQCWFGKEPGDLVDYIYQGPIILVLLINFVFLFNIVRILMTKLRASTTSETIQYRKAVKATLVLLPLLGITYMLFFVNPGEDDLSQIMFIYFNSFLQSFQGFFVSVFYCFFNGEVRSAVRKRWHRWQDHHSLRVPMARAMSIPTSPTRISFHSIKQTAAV
T2 sequence (P24387 whole entry): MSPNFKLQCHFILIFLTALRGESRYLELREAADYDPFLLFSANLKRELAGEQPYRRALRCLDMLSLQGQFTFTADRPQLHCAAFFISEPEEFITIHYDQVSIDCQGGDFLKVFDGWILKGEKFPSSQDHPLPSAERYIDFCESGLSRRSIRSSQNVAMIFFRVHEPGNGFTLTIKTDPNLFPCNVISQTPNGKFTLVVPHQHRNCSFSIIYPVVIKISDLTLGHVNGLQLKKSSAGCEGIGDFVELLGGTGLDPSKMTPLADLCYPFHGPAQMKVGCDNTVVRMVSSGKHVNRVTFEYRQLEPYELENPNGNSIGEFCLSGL

[6] = biological target: T2, Corticotropin-releasing factor receptor 2/Corticotropin-releasing factor-binding protein; assay: Dose Response confirmation of uHTS hits for small molecule antagonists of the CRF-binding protein and CRF-R2 receptor complex.; assay type: functional; conditions: read-out: IC50_Mean
[7] = biological target: Cytochrome P450 2D6 (Homo sapiens, UniProt P10635);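 further: CYP2D6 member of a cytochrome P450 panel assay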
Chain of Cytochrome P450 2D6 (P10635 whole entry): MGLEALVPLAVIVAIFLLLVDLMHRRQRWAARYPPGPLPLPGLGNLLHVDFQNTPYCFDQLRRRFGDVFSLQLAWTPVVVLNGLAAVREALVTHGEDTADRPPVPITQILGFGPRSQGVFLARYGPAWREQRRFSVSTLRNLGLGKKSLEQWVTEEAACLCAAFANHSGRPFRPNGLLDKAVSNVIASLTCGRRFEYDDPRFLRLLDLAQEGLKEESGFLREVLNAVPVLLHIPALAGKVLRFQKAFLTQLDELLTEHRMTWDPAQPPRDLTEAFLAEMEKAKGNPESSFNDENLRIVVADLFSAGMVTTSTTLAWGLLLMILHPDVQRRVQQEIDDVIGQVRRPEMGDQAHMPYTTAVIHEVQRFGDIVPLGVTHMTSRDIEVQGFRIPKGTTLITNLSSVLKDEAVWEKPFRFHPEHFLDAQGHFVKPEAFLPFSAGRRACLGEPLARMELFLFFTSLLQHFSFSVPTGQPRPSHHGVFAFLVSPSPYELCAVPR

[8] = biological target: Cytochrome P450 3A4 (Homo sapiens, UniProt P08684);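 further: CYP3A4 tested as one member of a cytochrome P450 panel screen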
Chain of Cytochrome P450 3A4 (P08684 whole entry): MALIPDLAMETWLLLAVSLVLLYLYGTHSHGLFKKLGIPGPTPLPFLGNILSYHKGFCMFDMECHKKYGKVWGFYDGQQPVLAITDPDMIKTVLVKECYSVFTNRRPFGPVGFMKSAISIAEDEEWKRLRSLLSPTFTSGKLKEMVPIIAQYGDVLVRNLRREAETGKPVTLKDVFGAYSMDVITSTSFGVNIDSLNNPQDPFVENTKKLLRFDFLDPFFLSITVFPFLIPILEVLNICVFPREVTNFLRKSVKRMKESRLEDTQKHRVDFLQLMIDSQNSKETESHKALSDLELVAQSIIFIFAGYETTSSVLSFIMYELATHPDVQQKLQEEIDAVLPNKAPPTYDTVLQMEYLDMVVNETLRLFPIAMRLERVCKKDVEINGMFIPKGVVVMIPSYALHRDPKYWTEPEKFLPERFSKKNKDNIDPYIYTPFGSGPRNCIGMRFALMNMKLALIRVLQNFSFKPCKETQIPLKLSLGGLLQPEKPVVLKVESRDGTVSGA

[9] = system: Streptococcus; assay: Group A Streptococcus viability loss, dose response, counter-screen for streptokinase expression inhibitor project, luminescence, BacTiterGlo (AID 1915); assay type: functional, organism-based;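 further: potency for reduction of bacterial viability or growth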
[10] = system: Streptococcus sp. 'group A'; assay: growth inhibition of control SK(-) GAS strain, dose response, counter-screen for streptokinase expression inhibitor project, luminescence, kanamycin, BacTiterGlo, confirmation (AID 1900); assay type: functional, organism-based
[11] = Luminescence Cell-Based Dose Retest to Confirm Inhibitors of Cancer Stem Cells. [Related pubchem assays (depositor defined):AID2717, AID2721]; assay type: functional; conditions: Homo sapiens
[12] = biological target: T3, Rac GTPase-activating protein 1 (Homo sapiens, UniProt Q9H0H5); assay: MgcRacGAP GTPase-activating activity inhibitors, confirmation, biochemical, ADP Hunter fluorescence, primary and confirmatory (AID 624330); assay type: functional
T3 sequence (Q9H0H5 whole entry): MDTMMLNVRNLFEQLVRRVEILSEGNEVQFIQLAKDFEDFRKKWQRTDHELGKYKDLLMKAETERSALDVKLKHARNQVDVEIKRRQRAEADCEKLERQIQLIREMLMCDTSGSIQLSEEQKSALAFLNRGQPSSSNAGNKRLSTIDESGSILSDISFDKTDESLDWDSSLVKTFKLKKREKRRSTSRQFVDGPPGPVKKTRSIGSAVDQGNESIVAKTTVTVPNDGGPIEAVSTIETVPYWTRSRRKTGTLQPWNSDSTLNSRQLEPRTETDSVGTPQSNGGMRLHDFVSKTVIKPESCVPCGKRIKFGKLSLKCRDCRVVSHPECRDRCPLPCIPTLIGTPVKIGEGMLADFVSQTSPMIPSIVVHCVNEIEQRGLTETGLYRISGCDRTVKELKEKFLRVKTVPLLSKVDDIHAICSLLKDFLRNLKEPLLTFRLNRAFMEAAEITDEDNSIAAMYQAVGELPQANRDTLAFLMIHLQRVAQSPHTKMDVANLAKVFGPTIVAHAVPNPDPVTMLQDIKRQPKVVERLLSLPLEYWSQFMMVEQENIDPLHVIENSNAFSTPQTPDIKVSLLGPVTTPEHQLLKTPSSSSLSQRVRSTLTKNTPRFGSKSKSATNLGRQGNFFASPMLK

C[C@@]12C(=O)N(c3cccc(F)c3)C(=O)N1[C@H](c1ccc(Cl)cc1)[C@@H]1C(=O)N(C3CCCCC3)C(=O)[C@@H]12
CC50 [1]: 38.5 µM (active)

Cc1cc(Nc2ccccc2)nc(N)n1
AC50 [2]: 8.91 µM (inconclusive)

Cc1ccc(CNC(=O)C2(NC(=O)Nc3ccc(C)cc3)CCCCC2)cc1
AC50 [3]: 1.78 µM (inconclusive)
AC50 [4]: 3.55 µM (inconclusive)

Cn1c(=O)[nH]c(=O)c2c1nc(NCCCO)n2CCCc1ccccc1
AC50 [4]: 12.6 µM (inconclusive)

CN(C)S(=O)(=O)c1ccc(C(=O)Nc2ccc(CN3CCCC3)cc2)cc1
AC50 [4]: 1.78 µM (inconclusive)

CCOC(=O)C1CCN(c2ncnc3c2nnn3Cc2ccccc2Cl)CC1
EC50 [5]: > 53 µM (inactive)
IC50 [6]: > 47.1 µM (inactive)

CCOC(=O)c1sc2nc(C)n(CC(=O)NCC3CCCO3)c(=O)c2c1C (configuration not stated)
EC50 [5]: > 53 µM (inactive)
IC50 [6]: > 47.1 µM (inactive)

O=C(NCCC1=CCCCC1)C1CCCN(c2nc3ccccc3o2)C1 (configuration not stated)
AC50 [2]: 15.8 µM (inconclusive)
AC50 [7]: 14.1 µM (inconclusive)

CN1C(=O)C(O)(C2COC(C)(C)CC2=O)c2cc(Br)ccc21 (configuration not stated)
EC50 [5]: > 53 µM (inactive)
IC50 [6]: > 47.1 µM (inactive)

C/C(CCN1CCc2nc(-c3ccccc3)c(-c3ccccc3)cc2C1)=N\O[C@@H](C)c1cc(-c2c(C)cc(C)cc2C)no1
AC50 [3]: 0.00631 µM (inconclusive)
AC50 [4]: 0.316 µM (inconclusive)
AC50 [8]: 3.98 µM (inconclusive)

CCCc1nnc(NC(=O)Cn2c(=O)oc3cc(Br)ccc32)s1
EC50 [5]: 9.87 µM (active)

COc1ccc(-n2c(=O)c(-c3cc(F)cc(F)c3)nc3cnc(N4CCNCC4)nc32)cc1
AC50 [2]: 12.6 µM (inconclusive)
AC50 [8]: 25.1 µM (inconclusive)

O=C(NCc1ccco1)c1cc(C(=O)C2CCCCC2)c[nH]1
AC50 [3]: 14.1 µM (inconclusive)
AC50 [4]: 8.91 µM (inconclusive)

C/C(=N/NS(=O)(=O)c1ccc(Br)cc1)c1ccc(NC(=O)c2ccc(C)o2)cc1
CC50 [1]: 38 µM (active)

O=C(Nc1cccc(F)c1)c1cc(S(=O)(=O)N2CCOCC2)ccc1N1CCCC1
EC50 [5]: > 53 µM (inactive)

CN1CCc2nc3sc(C(=O)NC(C)(C)C)c(N)c3cc2C1
AC50 [2]: 14.1 µM (inconclusive)
AC50 [3]: 31.6 µM (inconclusive)

Cc1ccc(OCC(=O)NNC(=O)C2CCN(c3ncccn3)CC2)cc1
AC50 [3]: 0.501 µM (inconclusive)
AC50 [4]: 14.1 µM (inconclusive)
AC50 [8]: 20 µM (inconclusive)

COc1ccc(-n2c(Cc3cccc([N+](=O)[O-])c3)nc3ccccc3c2=O)cc1
CC50 [1]: > 50 µM (active)

Cc1ccc(Cn2cnc3c(nnn3Cc3ccc(Cl)cc3)c2=O)cc1
AC50 [2]: 25.1 µM (inconclusive)
AC50 [3]: 4.47 µM (inconclusive)

O=S(=O)(Cc1ccccc1)N1CCC(c2nc(O)c3nnn(Cc4cccc(Cl)c4)c3n2)CC1
CC50 [1]: 48.9 µM (active)

CCOC(=O)c1cnc2c(cnn2C)c1NCCCN(C)C
AC50 [2]: 22.4 µM (inconclusive)

CCC(CC)C(=O)c1c[nH]c(C(=O)NCCc2ccccn2)c1
AC50 [2]: 14.1 µM (inconclusive)
AC50 [3]: 20 µM (inconclusive)
AC50 [4]: 39.8 µM (inconclusive)
AC50 [8]: 20 µM (inconclusive)

CC(C)NC(=O)N1CCN(c2ccncc2S(=O)(=O)N2CCOCC2)CC1
AC50 [3]: 39.8 µM (inconclusive)
AC50 [4]: 35.5 µM (inconclusive)

COc1ccccc1NS(=O)(=O)c1cc(C(=O)NCCC(C)C)ccc1F
EC50 [5]: 8.2 µM (active)

O=C(CSc1ccccc1)Nc1ccc(NC(=O)c2ccco2)cc1
AC50 [3]: 14.1 µM (inconclusive)
AC50 [4]: 20 µM (inconclusive)

CCCCCCC[n+]1ccc(-c2cc[n+](CCCCCCC)cc2)cc1
AC50 [2]: 31.6 µM (inconclusive)
AC50 [3]: 10 µM (inconclusive)
AC50 [4]: 39.8 µM (inconclusive)

O=Nc1c(O)n(Cc2ccc(Cl)cc2)c2ccccc12
CC50 [1]: 38.5 µM (active)
AC50 [7]: 25.1 µM (inconclusive)

C#CCN1C(C)=C(C(=O)OC)[C@@H](c2cccc([N+](=O)[O-])c2)C(C(=O)OCC)=C1C
AC50 [2]: 12.6 µM (inconclusive)
AC50 [7]: 15.8 µM (inconclusive)

CC(Oc1ccc(Cl)cc1Cl)C(=O)/C=C/N(C)C (configuration not stated)
AC50 [4]: 12.6 µM (inconclusive)
AC50 [7]: 14.1 µM (inconclusive)
AC50 [8]: 25.1 µM (inconclusive)

O=C(O)Cc1cccnc1C(=O)O
AC50 [2]: 39.8 µM (inconclusive)

Cc1cccc(CNc2ccnc(-c3ccccc3Cl)n2)c1
AC50 [4]: 0.794 µM (inconclusive)

COc1ccc(-c2sc3ccc(OC)cc3c2C#CCCO)cc1
EC50 [9]: 9.32 µM (active)
EC50 [10]: 7.3 µM (active)
AC50 [11]: 2.88 µM (active)

COc1ccc2[nH]cc(CCNc3ccnc(-c4c(C)noc4C)n3)c2c1
AC50 [4]: 0.794 µM (inconclusive)
AC50 [7]: 12.6 µM (inconclusive)

Cc1nn(C(C)C(=O)Nc2sc3c(c2C#N)CCCC3)c(C)c1[N+](=O)[O-] (configuration not stated)
AC50 [4]: 3.98 µM (inconclusive)

O=C(CSc1ccc(C(F)(F)F)cc1[N+](=O)[O-])Nc1ccccc1
AC50 [2]: 1.26 µM (inconclusive)
AC50 [8]: 15.8 µM (inconclusive)

CN1/C(=C/C=C(/C#N)C(N)=O)C(C)(C)c2ccccc21
AC50 [4]: 28.2 µM (inconclusive)
AC50 [8]: 22.4 µM (inconclusive)

CCNc1ncc2nc(-c3cc(F)cc(F)c3)c(=O)n(C[C@H]3CCCO3)c2n1
AC50 [2]: 3.16 µM (inconclusive)
AC50 [8]: 15.8 µM (inconclusive)

O=c1c(CCc2ccccc2)nc2cncnc2n1C1CC1
AC50 [3]: 39.8 µM (inconclusive)
AC50 [4]: 25.1 µM (inconclusive)
AC50 [7]: 15.8 µM (inconclusive)
AC50 [8]: 10 µM (inconclusive)

Cc1[nH]c2ccccc2c1/C=N/NC(=O)c1cccc(S(=O)(=O)Nc2cccc(C(F)(F)F)c2)c1
CC50 [1]: 12.2 µM (active)

O=C(CNC(=O)c1ccco1)N/N=C/c1ccc(O)cc1O
IC50 [12]: 104 µM (active)

CCOc1cc(/C=N/Nc2ncc(C)c(O)n2)ccc1O
IC50 [12]: 32.1 µM (active)

Oc1ccc(C23CCCC2C2(CCCC2)c2ccc(O)cc2O3)c(O)c1 (configuration not stated)
CC50 [1]: 10.6 µM (active)

Cc1ccccc1OCCC(=O)Nc1cc(S(=O)(=O)N2CCCCC2)ccc1N1CCN(C)CC1
EC50 [5]: 9.71 µM (active)

CCc1cc(-c2n[nH]cc2-c2nc3ccccc3n2C)c(O)cc1O
IC50 [12]: 83.6 µM (active)
